Experimental findings from patent US20240173439A1, “FLUORINE-CONTAINING COMPOUND AND CONTRAST MEDIUM” (TDK CORPORATION, priority 2021, published 2024) are described below.

This data set is described as follows: Measurement of 19F spin-lattice relaxation time (T1) by inversion recovery, 500 MHz NMR. Format: physicochemical. The settings on record: 50 mM in CDCl3, 36° C. The method, then: (Measurement of ^19F Spin-Lattice Relaxation Time (T1))
A compound was dissolved in a deuterated chloroform solution at a concentration of 50 mM, and the longitudinal relaxation time (T1) of ^19F nucleus was measured through an inversion recovery method using a 500 MHz NMR device under the conditions shown below.
Measurement Conditions • NMR device: JNM-ECA500 (manufactured by JEOL) • Measurement temperature: 36° C. • Pulse sequence: double_pulse • relaxation_delay: 10[s] • tau_interval: 4, 3, 2, 1, 0.8, 0.6, 0.4, 0.2, 0.1[s], 80, 60, 40, 20, 10, 8, 6, 4, 2[ms] • Number of times of integration: 16 times

With `CC1(C)CC(Oc2ccccc2C(F)(F)F)CC(C)(C)N1[O]` [Compound 18], the “T1 (19F spin-lattice relaxation time)” value came out at 0.098 s.

`CC1(C)CC(OCCCCCCCCOC(C(F)(F)F)(C(F)(F)F)C(F)(F)F)CC(C)(C)N1[O]` [Compound 27, 4-((8-((1,1,1,3,3,3-hexafluoro-2-(trifluoromethyl)propane-2-yl)oxy)octyl)oxy)-2,2,6,6-tet ramethylpiperidine-1-oxyl]: the “T1 (19F spin-lattice relaxation time)” value came out at 0.130 s. Take `CC1(C)CC(OC(C(F)(F)F)(C(F)(F)F)C(F)(F)F)CC(C)(C)N1[O]` [Compound 15, 4-((1,1,1,3,3,3-hexafluoro-2-(trifluoromethyl)propane-2-yl)oxy)-2,2,6,6-tetramethylpiper idine-1-oxyl]: the “T1 (19F spin-lattice relaxation time)” value worked out at 0.094 s. For the compound `CC1(C)CC(OCCCC(F)(F)F)CC(C)(C)N1[O]` [Compound 14], the “T1 (19F spin-lattice relaxation time)” value was 0.117 s. Next, `CC1(C)CC(OCCOC(C(F)(F)F)(C(F)(F)F)C(F)(F)F)CC(C)(C)N1[O]` [Compound 12]: 0.121 s. The result for `CCC1(CC)CC(OCCCCOC(C(F)(F)F)(C(F)(F)F)C(F)(F)F)CC(CC)(CC)N1[O]` [Compound 22, 4-(4-((1,1,1,3,3,3-hexafluoro-2-(trifluoromethyl)propane-2-yl)oxy)butoxy)-2,2,6,6-tetraet hylpiperidine-1-oxyl] reads 0.130 s; that for `CC1(C)CC(Oc2ccc(C(F)(F)F)cc2)CC(C)(C)N1[O]` [Compound 21], 0.123 s; that for `CC1(C)CC(OCCCCCCCCCCCCOC(C(F)(F)F)(C(F)(F)F)C(F)(F)F)CC(C)(C)N1[O]` [Compound 28], 0.214 s. The result for `CC1(C)CC(OCCCCOC(C(F)(F)F)(C(F)(F)F)C(F)(F)F)CC(C)(C)N1[O]` [Compound 11, 4-(4-((1,1,1,3,3,3-hexafluoro-2-(trifluoromethyl)propane-2-yl)oxy)butoxy)-2,2,6,6-tetra methylpiperidine-1-oxyl] reads 0.134 s; that for `CC1(C)CC(OC(C(F)(F)F)(C(F)(F)F)C(F)(F)F)CC(C)(C)N1[O]` [Compound 24, 4-((1,1,1,3,3,3-hexafluoro-2-(trifluoromethyl)propane-2-yl)oxy)-2,2,6,6-tetramethylpiperidine-1-oxyl], 0.092 s. With `CCC1(CC)CC(OCCCCOC(C(F)(F)F)(C(F)(F)F)C(F)(F)F)CC(C)(C)N1[O]` (stereo not shown) [Compound 25, 4-(4-((1,1,1,3,3,3-hexafluoro-2-(trifluoromethyl)propane-2-yl)oxy)butoxy)-2,2-diethyl-6,6-dimethylpiperidine-1-oxyl], the “T1 (19F spin-lattice relaxation time)” value was determined as 0.127 s. Next, `CC1(C)CC(OCC(F)(F)F)CC(C)(C)N1[O]` [Compound 17]: 0.101 s; `CC1(C)CC(OCCCCCCCCCCCCCCCCOC(C(F)(F)F)(C(F)(F)F)C(F)(F)F)CC(C)(C)N1[O]` [Compound 29]: 0.284 s; `CC1(C)CC(OCCCCOC(C(F)(F)F)C(F)(F)F)CC(C)(C)N1[O]` [Compound 26, 4-(4-((1,1,1,3,3,3-hexafluoropropane-2-yl)oxy)butoxy)-2,2,6,6-tetramethylpiperidine-1-o xyl]: 0.130 s. As to `CC1(C)CC(OCCC(F)(F)F)CC(C)(C)N1[O]` [Compound 13], the “T1 (19F spin-lattice relaxation time)” value came to 0.105 s.

As to `CCC1(CC)CC(OCCOC(C(F)(F)F)(C(F)(F)F)C(F)(F)F)CC(CC)(CC)N1[O]` [Compound 23], the “T1 (19F spin-lattice relaxation time)” value stood at 0.118 s.

Turning to `CC1(C)CC(Oc2cccc(C(F)(F)F)c2)CC(C)(C)N1[O]` [Compound 19], the “T1 (19F spin-lattice relaxation time)” value was determined as 0.110 s. The result for `CC1(C)CC(Oc2cc(C(F)(F)F)cc(C(F)(F)F)c2)CC(C)(C)N1[O]` [Compound 20] reads 0.108 s. `CC1(C)CC(OC(C(F)(F)F)C(F)(F)F)CC(C)(C)N1[O]` [Compound 16]: the “T1 (19F spin-lattice relaxation time)” value is 0.096 s.
